{"source": "patent US7728005B2", "about": "“Ether derivative” (Ajinomoto Co., Inc., priority 2003, dated 2010)", "key": {"male ICR mouse": {"tested_on": "male ICR mouse", "assay": "Acetic acid-induced writhing method", "type": "in vivo", "protocol": "The effect of the test compound in the writhing test method induced by acetic acid was examined using male ICR mouse (4-week-old). For intraperitoneal administration of the test compound, the test compound was dissolved in saline containing 5% DMSO and 5% Tween 80 to a suitable concentration, and administered at a dose of 5 ml/kg at 30 min before acetic acid administration. For oral administration of the test compound, the test compound was suspended in 0.5% CMC and administered at a dose of 5 ml/kg at 1 hr before acetic acid administration. Acetic acid was diluted with saline to 0.9%, intraperitoneally administered at a dose of 5 ml/kg and, starting 5 min thereafter, the number of writhing responses was counted for 15 min. Saline containing 5% DMSO and 5% Tween 80 was also intraperitoneally administered to the control group (vehicle administration group). As the standard product, indomethacin was used, which was suspended in 0.5% tragacanth gum and orally administered at 90 min before acetic acid administration. 0.5% Tragacanth gum was administered to the control group.\nThe number of writhing responses by each test compound is shown in FIG. 1 and the number of writhing responses by indomethacin is shown in FIG. 2."}, "Male ICR mice": {"tested_on": "Male ICR mice", "assay": "Mustard oil-induced thermal hyperalgesia model method (hot plate test)", "type": "in vivo", "conditions": "1.0 mg/kg oral, 1 hr before hot plate test; ICR mouse", "protocol": "Male ICR mice (5 to 7-week-old) were used. Mustard oil 10% (diluted with distilled water) was subcutaneously injected into both hind paws, and a hot plate test was performed 30 min […] later. The animal was placed on a hot plate and the latency for nociceptive behavior was measured and used as an index. The compound was suspended in 0.5% CMC and orally administered at a dose of 5 ml/kg at 1 hr before the hot plate test. The inhibitory rate was calculated relative to the index measured before administration as 100%."}}, "data": [{"smiles": "O=C(NCCOc1ccc(F)cc1)Nc1ccccc1Br", "note": "[Example 1, N-(2-bromophenyl)-N′-[2-(4-fluorophenoxy)ethyl]urea]", "values": [{"measurement": "inhibitory rate (number of writhing responses)", "setting": "male ICR mouse; 10 mg/kg intraperitoneal, 30 min before acetic acid", "result": 76, "unit": "%"}]}, {"smiles": "C[C@@H](COc1cccc(Cl)c1)NC(=O)Nc1cccc2cnccc12", "note": "[Example 38, N-[(1S)-2-(3-chlorophenoxy)-1-methylethyl]-N′-(isoquinolin-5-yl)urea]", "values": [{"measurement": "inhibition rate (latency for nociceptive behavior)", "setting": "Male ICR mice", "result": 57, "unit": "%"}]}, {"smiles": "COc1ccc2c(c1)c(CC(=O)O)c(C)n2C(=O)c1ccc(Cl)cc1", "note": "[indomethacin, reference compound]", "values": [{"measurement": "inhibitory rate (number of writhing responses)", "setting": "male ICR mouse; 30 mg/kg oral, 90 min before acetic acid", "result": 56, "unit": "%"}]}]}
